Experimental data from patent US7118895B2, “Process for producing aglycon by using diglycosidase and flavor-improved food containing the aglycon and converting agent to be used in the process” (Amano Enzyme Inc., priority 2000, dated 2006).

Test system: Crude diglycosidase
Experiment: Examination of pH in the conversion into isoflavone aglycons by diglycosidase using soybean materials
Type: biochemical, Penicillium multicolor IAM7153
Parameters: Decomposition efficiency of genistin family in soymilk / Decomposition efficiency of genistin family in defatted soybean / Decomposition efficiency of daidzin family in defatted soybean: concentration or dose not given beside the values
Details: for Decomposition efficiency of daidzin family in roasted soy flour: 55° C.
Procedure, shortened: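 Suspensions of 50 mg roasted soy flour, soymilk, defatted soybean or concentrated soy protein were brought to pH 2 to 11 with HCl or NaOH and reacted at 55° C with crude diglycosidase (enzyme solution at 1.88 AU/mL, same pH). Ethanol-stopped samples at 0, 1, 3 and 6 h were analysed by HPLC.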

[1] = pH4.8, heat treatment of enzyme: no, reaction time 0 h
[2] = pH4.8, heat treatment of enzyme: no, reaction time 1 h
[3] = pH4.8, heat treatment of enzyme: no, reaction time 3 h
[4] = pH4.8, heat treatment of enzyme: no, reaction time 6 h
[5] = pH4.8, heat treatment of enzyme: yes, reaction time 6 h
[6] = pH6.6, heat treatment of enzyme: no, reaction time 0 h
[7] = pH6.6, heat treatment of enzyme: no, reaction time 1 h
[8] = pH6.6, heat treatment of enzyme: no, reaction time 3 h
[9] = pH6.6, heat treatment of enzyme: no, reaction time 6 h
[10] = pH6.6, heat treatment of enzyme: yes, reaction time 6 h

Compound: CC(=O)OC[C@H]1O[C@@H](Oc2ccc3c(=O)c(-c4ccc(O)cc4)coc3c2)[C@H](O)[C@@H](O)[C@@H]1O [acetyldaidzin, 6″-O-acetyldaidzin]
- Decomposition efficiency of daidzin family in concentrated soybean protein (pH1.6, heat treatment of enzyme: no, reaction time 0 h): 44.5%
- Decomposition efficiency of daidzin family in concentrated soybean protein (pH1.6, heat treatment of enzyme: no, reaction time 1 h): 43.7%
- Decomposition efficiency of daidzin family in concentrated soybean protein (pH1.6, heat treatment of enzyme: no, reaction time 3 h): 41.7%
- Decomposition efficiency of daidzin family in concentrated soybean protein (pH1.6, heat treatment of enzyme: no, reaction time 6 h): 39.4%
- Decomposition efficiency of daidzin family in concentrated soybean protein (pH1.6, heat treatment of enzyme: yes, reaction time 6 h): 38.1%
- Decomposition efficiency of daidzin family in roasted soy flour (pH2, heat treatment of enzyme no, reaction time 0 h): 47.4
- Decomposition efficiency of daidzin family in roasted soy flour (pH2, heat treatment of enzyme no, reaction time 1 h): 46.9
- Decomposition efficiency of daidzin family in roasted soy flour (pH2, heat treatment of enzyme no, reaction time 3 h): 45.0
- Decomposition efficiency of daidzin family in roasted soy flour (pH2, heat treatment of enzyme no, reaction time 6 h): 42.4
- Decomposition efficiency of daidzin family in roasted soy flour (pH2, heat treatment of enzyme yes, reaction time 6 h): 42.4
- Decomposition efficiency of daidzin family in soymilk (pH2.3, heat treatment of enzyme: no, reaction time 0 h): not detected
- Decomposition efficiency of daidzin family in soymilk (pH2.3, heat treatment of enzyme: no, reaction time 1 h): not detected
- Decomposition efficiency of daidzin family in soymilk (pH2.3, heat treatment of enzyme: no, reaction time 3 h): not detected
- Decomposition efficiency of daidzin family in soymilk (pH2.3, heat treatment of enzyme: no, reaction time 6 h): not detected
- Decomposition efficiency of daidzin family in soymilk (pH2.3, heat treatment of enzyme: yes, reaction time 6 h): not detected
- Decomposition efficiency of daidzin family in defatted soybean (pH2.6, heat treatment of enzyme: no, reaction time 0 h): not detected
- Decomposition efficiency of daidzin family in defatted soybean (pH2.6, heat treatment of enzyme: no, reaction time 1 h): not detected
- Decomposition efficiency of daidzin family in defatted soybean (pH2.6, heat treatment of enzyme: no, reaction time 3 h): not detected
- Decomposition efficiency of daidzin family in defatted soybean (pH2.6, heat treatment of enzyme: no, reaction time 6 h): not detected
- Decomposition efficiency of daidzin family in defatted soybean (pH2.6, heat treatment of enzyme: yes, reaction time 6 h): not detected
- Decomposition efficiency of daidzin family in concentrated soybean protein (pH2.7, heat treatment of enzyme: no, reaction time 0 h): 44.5%
- Decomposition efficiency of daidzin family in concentrated soybean protein (pH2.7, heat treatment of enzyme: no, reaction time 1 h): 46.4%
- Decomposition efficiency of daidzin family in concentrated soybean protein (pH2.7, heat treatment of enzyme: no, reaction time 3 h): 46.0%
- Decomposition efficiency of daidzin family in concentrated soybean protein (pH2.7, heat treatment of enzyme: no, reaction time 6 h): 45.8%
- Decomposition efficiency of daidzin family in concentrated soybean protein (pH2.7, heat treatment of enzyme: yes, reaction time 6 h): 43.9%
- Decomposition efficiency of daidzin family in roasted soy flour (pH3, heat treatment of enzyme no, reaction time 0 h): 47.4
- Decomposition efficiency of daidzin family in roasted soy flour (pH3, heat treatment of enzyme no, reaction time 1 h): 46.0
- Decomposition efficiency of daidzin family in roasted soy flour (pH3, heat treatment of enzyme no, reaction time 3 h): 39.6
- Decomposition efficiency of daidzin family in roasted soy flour (pH3, heat treatment of enzyme no, reaction time 6 h): 40.7
- Decomposition efficiency of daidzin family in roasted soy flour (pH3, heat treatment of enzyme yes, reaction time 6 h): 47.4
- Decomposition efficiency of daidzin family in defatted soybean (pH3.4, heat treatment of enzyme: no, reaction time 0 h): not detected
- Decomposition efficiency of daidzin family in defatted soybean (pH3.4, heat treatment of enzyme: no, reaction time 1 h): not detected
- Decomposition efficiency of daidzin family in defatted soybean (pH3.4, heat treatment of enzyme: no, reaction time 3 h): not detected
- Decomposition efficiency of daidzin family in defatted soybean (pH3.4, heat treatment of enzyme: no, reaction time 6 h): not detected
- Decomposition efficiency of daidzin family in defatted soybean (pH3.4, heat treatment of enzyme: yes, reaction time 6 h): not detected
- Decomposition efficiency of daidzin family in soymilk (pH3.5, heat treatment of enzyme: no, reaction time 0 h): not detected
- Decomposition efficiency of daidzin family in soymilk (pH3.5, heat treatment of enzyme: no, reaction time 1 h): not detected
- Decomposition efficiency of daidzin family in soymilk (pH3.5, heat treatment of enzyme: no, reaction time 3 h): not detected
- Decomposition efficiency of daidzin family in soymilk (pH3.5, heat treatment of enzyme: no, reaction time 6 h): not detected
- Decomposition efficiency of daidzin family in soymilk (pH3.5, heat treatment of enzyme: yes, reaction time 6 h): not detected
- Decomposition efficiency of daidzin family in concentrated soybean protein (pH3.7, heat treatment of enzyme: no, reaction time 0 h): 44.6%
- Decomposition efficiency of daidzin family in concentrated soybean protein (pH3.7, heat treatment of enzyme: no, reaction time 1 h): 41.6%
- Decomposition efficiency of daidzin family in concentrated soybean protein (pH3.7, heat treatment of enzyme: no, reaction time 3 h): 33.0%
- Decomposition efficiency of daidzin family in concentrated soybean protein (pH3.7, heat treatment of enzyme: no, reaction time 6 h): 25.2%
- Decomposition efficiency of daidzin family in concentrated soybean protein (pH3.7, heat treatment of enzyme: yes, reaction time 6 h): 44.4%
- Decomposition efficiency of daidzin family in roasted soy flour (pH4, heat treatment of enzyme no, reaction time 0 h): 47.7
- Decomposition efficiency of daidzin family in roasted soy flour (pH4, heat treatment of enzyme no, reaction time 1 h): 34.4
- Decomposition efficiency of daidzin family in roasted soy flour (pH4, heat treatment of enzyme no, reaction time 3 h): 20.5
- Decomposition efficiency of daidzin family in roasted soy flour (pH4, heat treatment of enzyme no, reaction time 6 h): 11.1
- Decomposition efficiency of daidzin family in roasted soy flour (pH4, heat treatment of enzyme yes, reaction time 6 h): 47.9
- Decomposition efficiency of daidzin family in defatted soybean [1]: not detected
- Decomposition efficiency of daidzin family in soymilk [1]: not detected
- Decomposition efficiency of daidzin family in defatted soybean [2]: not detected
- Decomposition efficiency of daidzin family in soymilk [2]: not detected
- Decomposition efficiency of daidzin family in defatted soybean [3]: not detected
- Decomposition efficiency of daidzin family in soymilk [3]: not detected
- Decomposition efficiency of daidzin family in defatted soybean [4]: not detected
- Decomposition efficiency of daidzin family in soymilk [4]: not detected
- Decomposition efficiency of daidzin family in defatted soybean [5]: not detected
- Decomposition efficiency of daidzin family in soymilk [5]: not detected
- Decomposition efficiency of daidzin family in roasted soy flour (pH5, heat treatment of enzyme no, reaction time 0 h): 47.7
- Decomposition efficiency of daidzin family in roasted soy flour (pH5, heat treatment of enzyme no, reaction time 1 h): 38.5
- Decomposition efficiency of daidzin family in roasted soy flour (pH5, heat treatment of enzyme no, reaction time 3 h): 24.7
- Decomposition efficiency of daidzin family in roasted soy flour (pH5, heat treatment of enzyme no, reaction time 6 h): 15.2
- Decomposition efficiency of daidzin family in roasted soy flour (pH5, heat treatment of enzyme yes, reaction time 6 h): 45.0
- Decomposition efficiency of daidzin family in concentrated soybean protein (pH5.1, heat treatment of enzyme: no, reaction time 0 h): 44.6%
- Decomposition efficiency of daidzin family in concentrated soybean protein (pH5.1, heat treatment of enzyme: no, reaction time 1 h): 43.4%
- Decomposition efficiency of daidzin family in concentrated soybean protein (pH5.1, heat treatment of enzyme: no, reaction time 3 h): 37.0%
- Decomposition efficiency of daidzin family in concentrated soybean protein (pH5.1, heat treatment of enzyme: no, reaction time 6 h): 31.2%
- Decomposition efficiency of daidzin family in concentrated soybean protein (pH5.1, heat treatment of enzyme: yes, reaction time 6 h): 43.4%
- Decomposition efficiency of daidzin family in defatted soybean (pH5.4, heat treatment of enzyme: no, reaction time 0 h): not detected
- Decomposition efficiency of daidzin family in defatted soybean (pH5.4, heat treatment of enzyme: no, reaction time 1 h): not detected
- Decomposition efficiency of daidzin family in defatted soybean (pH5.4, heat treatment of enzyme: no, reaction time 3 h): not detected
- Decomposition efficiency of daidzin family in defatted soybean (pH5.4, heat treatment of enzyme: no, reaction time 6 h): not detected
- Decomposition efficiency of daidzin family in defatted soybean (pH5.4, heat treatment of enzyme: yes, reaction time 6 h): not detected
- Decomposition efficiency of daidzin family in soymilk (pH6.2, heat treatment of enzyme: no, reaction time 0 h): not detected
- Decomposition efficiency of daidzin family in soymilk (pH6.2, heat treatment of enzyme: no, reaction time 1 h): not detected
- Decomposition efficiency of daidzin family in soymilk (pH6.2, heat treatment of enzyme: no, reaction time 3 h): not detected
- Decomposition efficiency of daidzin family in soymilk (pH6.2, heat treatment of enzyme: no, reaction time 6 h): not detected
- Decomposition efficiency of daidzin family in soymilk (pH6.2, heat treatment of enzyme: yes, reaction time 6 h): not detected
- Decomposition efficiency of daidzin family in roasted soy flour (pH6.5, heat treatment of enzyme no, reaction time 0 h): 48.2
- Decomposition efficiency of daidzin family in roasted soy flour (pH6.5, heat treatment of enzyme no, reaction time 1 h): 45.4
- Decomposition efficiency of daidzin family in roasted soy flour (pH6.5, heat treatment of enzyme no, reaction time 3 h): 39.2
- Decomposition efficiency of daidzin family in roasted soy flour (pH6.5, heat treatment of enzyme no, reaction time 6 h): 34.4
- Decomposition efficiency of daidzin family in roasted soy flour (pH6.5, heat treatment of enzyme yes, reaction time 6 h): 43.4
- Decomposition efficiency of daidzin family in concentrated soybean protein [6]: 44.8%
- Decomposition efficiency of daidzin family in defatted soybean [6]: not detected
- Decomposition efficiency of daidzin family in concentrated soybean protein [7]: 43.9%
- Decomposition efficiency of daidzin family in defatted soybean [7]: not detected
- Decomposition efficiency of daidzin family in concentrated soybean protein [8]: 42.9%
- Decomposition efficiency of daidzin family in defatted soybean [8]: not detected
- Decomposition efficiency of daidzin family in concentrated soybean protein [9]: 41.2%
- Decomposition efficiency of daidzin family in defatted soybean [9]: not detected
- Decomposition efficiency of daidzin family in concentrated soybean protein [10]: 41.8%
- Decomposition efficiency of daidzin family in defatted soybean [10]: not detected
- Decomposition efficiency of daidzin family in soymilk (pH7.2, heat treatment of enzyme: no, reaction time 0 h): not detected
- Decomposition efficiency of daidzin family in soymilk (pH7.2, heat treatment of enzyme: no, reaction time 1 h): not detected
- Decomposition efficiency of daidzin family in soymilk (pH7.2, heat treatment of enzyme: no, reaction time 3 h): not detected
- Decomposition efficiency of daidzin family in soymilk (pH7.2, heat treatment of enzyme: no, reaction time 6 h): not detected
- Decomposition efficiency of daidzin family in soymilk (pH7.2, heat treatment of enzyme: yes, reaction time 6 h): not detected
- Decomposition efficiency of daidzin family in defatted soybean (pH7.8, heat treatment of enzyme: no, reaction time 0 h): not detected
- Decomposition efficiency of daidzin family in defatted soybean (pH7.8, heat treatment of enzyme: no, reaction time 1 h): not detected
- Decomposition efficiency of daidzin family in defatted soybean (pH7.8, heat treatment of enzyme: no, reaction time 3 h): not detected
- Decomposition efficiency of daidzin family in defatted soybean (pH7.8, heat treatment of enzyme: no, reaction time 6 h): not detected
- Decomposition efficiency of daidzin family in defatted soybean (pH7.8, heat treatment of enzyme: yes, reaction time 6 h): not detected
- Decomposition efficiency of daidzin family in roasted soy flour (pH8.5, heat treatment of enzyme no, reaction time 0 h): 42.1
- Decomposition efficiency of daidzin family in roasted soy flour (pH8.5, heat treatment of enzyme no, reaction time 1 h): 42.7
- Decomposition efficiency of daidzin family in roasted soy flour (pH8.5, heat treatment of enzyme no, reaction time 3 h): 40.3
- Decomposition efficiency of daidzin family in roasted soy flour (pH8.5, heat treatment of enzyme no, reaction time 6 h): 38.0
- Decomposition efficiency of daidzin family in roasted soy flour (pH8.5, heat treatment of enzyme yes, reaction time 6 h): 37.3
- Decomposition efficiency of daidzin family in concentrated soybean protein (pH8.6, heat treatment of enzyme: no, reaction time 0 h): 40.7%
- Decomposition efficiency of daidzin family in concentrated soybean protein (pH8.6, heat treatment of enzyme: no, reaction time 1 h): 39.2%
- Decomposition efficiency of daidzin family in concentrated soybean protein (pH8.6, heat treatment of enzyme: no, reaction time 3 h): 39.0%
- Decomposition efficiency of daidzin family in concentrated soybean protein (pH8.6, heat treatment of enzyme: no, reaction time 6 h): 38.1%
- Decomposition efficiency of daidzin family in concentrated soybean protein (pH8.6, heat treatment of enzyme: yes, reaction time 6 h): 37.7%
- Decomposition efficiency of daidzin family in soymilk (pH11.6, heat treatment of enzyme: no, reaction time 0 h): not detected
- Decomposition efficiency of daidzin family in soymilk (pH11.6, heat treatment of enzyme: no, reaction time 1 h): not detected
- Decomposition efficiency of daidzin family in soymilk (pH11.6, heat treatment of enzyme: no, reaction time 3 h): not detected
- Decomposition efficiency of daidzin family in soymilk (pH11.6, heat treatment of enzyme: no, reaction time 6 h): not detected
- Decomposition efficiency of daidzin family in soymilk (pH11.6, heat treatment of enzyme: yes, reaction time 6 h): not detected
